± gives the expanded uncertainty stated by the source.
Experiment: xn = mol fraction of the nth substance listed
Details: 100 kPa, Liquid; for speed of sound: Frequency=3 MHz, Linear variable-path acoustic interferometer; for mass density: Pycnometric method

## C=C(C)C(=O)OC [methyl methacrylate] + CC#N
308.15 K, x2 = 0
  speed of sound: 1152.6 ± 1.6 m/s
  mass density: 926.16 ± 1 kg/m3
308.15 K, x2 = 0.0688
  speed of sound: 1159.6 ± 1.6 m/s
  mass density: 921.23 ± 1 kg/m3
308.15 K, x2 = 0.1376
  speed of sound: 1166 ± 1.6 m/s
  mass density: 915.74 ± 1 kg/m3
308.15 K, x2 = 0.1957
  speed of sound: 1171.2 ± 1.6 m/s
  mass density: 910.65 ± 1 kg/m3
308.15 K, x2 = 0.2716
  speed of sound: 1177.8 ± 1.6 m/s
  mass density: 903.31 ± 1 kg/m3
308.15 K, x2 = 0.3344
  speed of sound: 1183 ± 1.6 m/s
  mass density: 896.61 ± 1 kg/m3
308.15 K, x2 = 0.4135
  speed of sound: 1189.5 ± 1.6 m/s
  mass density: 887.27 ± 1 kg/m3
308.15 K, x2 = 0.4916
  speed of sound: 1195.7 ± 1.6 m/s
  mass density: 876.95 ± 1 kg/m3
308.15 K, x2 = 0.5649
  speed of sound: 1201.5 ± 1.6 m/s
  mass density: 866.13 ± 1 kg/m3
308.15 K, x2 = 0.6386
  speed of sound: 1207.4 ± 1.6 m/s
  mass density: 853.94 ± 1 kg/m3
308.15 K, x2 = 0.7084
  speed of sound: 1213.2 ± 1.6 m/s
  mass density: 841.01 ± 1 kg/m3
308.15 K, x2 = 0.7927
  speed of sound: 1220.8 ± 1.6 m/s
  mass density: 823.27 ± 1 kg/m3
308.15 K, x2 = 0.855
  speed of sound: 1227.1 ± 1.6 m/s
  mass density: 808.39 ± 1 kg/m3
308.15 K, x2 = 0.9073
  speed of sound: 1233 ± 1.6 m/s
  mass density: 794.51 ± 1 kg/m3
308.15 K, x2 = 0.9497
  speed of sound: 1238.2 ± 1.6 m/s
  mass density: 782.21 ± 1 kg/m3
313.15 K, x2 = 0
  speed of sound: 1135.4 ± 1.6 m/s
  mass density: 920.42 ± 1 kg/m3
313.15 K, x2 = 0.0688
  speed of sound: 1142.4 ± 1.6 m/s
  mass density: 915.52 ± 1 kg/m3
313.15 K, x2 = 0.1376
  speed of sound: 1148.7 ± 1.6 m/s
  mass density: 910.06 ± 1 kg/m3
313.15 K, x2 = 0.1957
  speed of sound: 1153.9 ± 1.6 m/s
  mass density: 904.99 ± 1 kg/m3
313.15 K, x2 = 0.2716
  speed of sound: 1160.3 ± 1.6 m/s
  mass density: 897.68 ± 1 kg/m3
313.15 K, x2 = 0.3344
  speed of sound: 1165.6 ± 1.6 m/s
  mass density: 891 ± 1 kg/m3
313.15 K, x2 = 0.4135
  speed of sound: 1172 ± 1.6 m/s
  mass density: 881.69 ± 1 kg/m3
313.15 K, x2 = 0.4916
  speed of sound: 1178.1 ± 1.6 m/s
  mass density: 871.4 ± 1 kg/m3
313.15 K, x2 = 0.5649
  speed of sound: 1183.8 ± 1.6 m/s
  mass density: 860.61 ± 1 kg/m3
313.15 K, x2 = 0.6386
  speed of sound: 1189.5 ± 1.6 m/s
  mass density: 848.45 ± 1 kg/m3
313.15 K, x2 = 0.7084
  speed of sound: 1195.2 ± 1.6 m/s
  mass density: 835.55 ± 1 kg/m3
313.15 K, x2 = 0.7927
  speed of sound: 1202.7 ± 1.6 m/s
  mass density: 817.85 ± 1 kg/m3
313.15 K, x2 = 0.855
  speed of sound: 1208.9 ± 1.6 m/s
  mass density: 803 ± 1 kg/m3
313.15 K, x2 = 0.9073
  speed of sound: 1214.7 ± 1.6 m/s
  mass density: 789.15 ± 1 kg/m3
313.15 K, x2 = 0.9497
  speed of sound: 1219.8 ± 1.6 m/s
  mass density: 776.87 ± 1 kg/m3
318.15 K, x2 = 0
  speed of sound: 1118.3 ± 1.6 m/s
  mass density: 914.67 ± 1 kg/m3
318.15 K, x2 = 0.0688
  speed of sound: 1125.1 ± 1.6 m/s
  mass density: 909.81 ± 1 kg/m3
318.15 K, x2 = 0.1376
  speed of sound: 1131.5 ± 1.6 m/s
  mass density: 904.38 ± 1 kg/m3
318.15 K, x2 = 0.1957
  speed of sound: 1136.6 ± 1.6 m/s
  mass density: 899.33 ± 1 kg/m3
318.15 K, x2 = 0.2716
  speed of sound: 1143.1 ± 1.6 m/s
  mass density: 892.05 ± 1 kg/m3
318.15 K, x2 = 0.3344
  speed of sound: 1148.2 ± 1.6 m/s
  mass density: 885.39 ± 1 kg/m3
318.15 K, x2 = 0.4135
  speed of sound: 1154.5 ± 1.6 m/s
  mass density: 876.11 ± 1 kg/m3
318.15 K, x2 = 0.4916
  speed of sound: 1160.5 ± 1.6 m/s
  mass density: 865.85 ± 1 kg/m3
318.15 K, x2 = 0.5649
  speed of sound: 1166.1 ± 1.6 m/s
  mass density: 855.09 ± 1 kg/m3
318.15 K, x2 = 0.6386
  speed of sound: 1171.8 ± 1.6 m/s
  mass density: 842.96 ± 1 kg/m3
318.15 K, x2 = 0.7084
  speed of sound: 1177.3 ± 1.6 m/s
  mass density: 830.09 ± 1 kg/m3
318.15 K, x2 = 0.7927
  speed of sound: 1184.6 ± 1.6 m/s
  mass density: 812.43 ± 1 kg/m3
318.15 K, x2 = 0.855
  speed of sound: 1190.7 ± 1.6 m/s
  mass density: 797.61 ± 1 kg/m3
318.15 K, x2 = 0.9073
  speed of sound: 1196.3 ± 1.6 m/s
  mass density: 783.79 ± 1 kg/m3
318.15 K, x2 = 0.9497
  speed of sound: 1201.4 ± 1.6 m/s
  mass density: 771.53 ± 1 kg/m3
